Source: patent US11400059B2, “Treatment of pain and/or pain related symptoms associated with dysmenorrhea” (ALYRA BIOTECH PTY LTD, priority 2017, dated 2022)
Entries after “also recorded” stand apart in the source; their conditions may differ.

Columns and labels:
hNOD1 = target: T1, hNOD1 (Homo sapiens, UniProt Q9Y239); experiment: Human TLR/NLR agonist screening, NF-κB SEAP reporter in HEK293 cells; format: cell-based; conditions: agonist mode, Control+ = C12-iE-DAP 1 μg/mL
T1 construct: expressed in transfected cells; host or cells: HEK293
T1 sequence (Q9Y239 1-953): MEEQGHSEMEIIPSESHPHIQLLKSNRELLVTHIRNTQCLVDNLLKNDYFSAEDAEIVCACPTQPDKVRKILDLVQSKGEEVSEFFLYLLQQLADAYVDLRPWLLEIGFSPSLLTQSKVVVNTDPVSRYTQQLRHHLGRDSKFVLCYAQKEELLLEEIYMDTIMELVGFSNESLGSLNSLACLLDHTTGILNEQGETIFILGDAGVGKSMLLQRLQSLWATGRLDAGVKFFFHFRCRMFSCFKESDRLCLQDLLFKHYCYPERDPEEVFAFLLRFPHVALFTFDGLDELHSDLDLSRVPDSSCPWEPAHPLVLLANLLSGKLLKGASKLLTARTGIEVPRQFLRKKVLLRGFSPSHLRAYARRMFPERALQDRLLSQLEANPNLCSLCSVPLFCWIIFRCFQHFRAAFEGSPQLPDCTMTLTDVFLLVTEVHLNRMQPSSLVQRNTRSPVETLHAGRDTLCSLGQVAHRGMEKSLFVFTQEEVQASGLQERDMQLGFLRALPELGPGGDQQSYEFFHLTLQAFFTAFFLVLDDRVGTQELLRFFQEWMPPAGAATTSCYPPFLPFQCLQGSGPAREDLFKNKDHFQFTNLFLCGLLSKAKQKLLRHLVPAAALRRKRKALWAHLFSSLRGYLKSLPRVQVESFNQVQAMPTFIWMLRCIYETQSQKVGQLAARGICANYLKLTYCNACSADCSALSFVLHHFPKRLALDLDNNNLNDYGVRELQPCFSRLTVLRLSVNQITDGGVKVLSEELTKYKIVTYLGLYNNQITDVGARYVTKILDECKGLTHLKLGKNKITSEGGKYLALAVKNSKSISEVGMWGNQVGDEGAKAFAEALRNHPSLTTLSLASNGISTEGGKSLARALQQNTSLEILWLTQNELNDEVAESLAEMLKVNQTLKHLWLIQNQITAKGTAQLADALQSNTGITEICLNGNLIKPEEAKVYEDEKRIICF
Procedure: (§1) Toll-Like Receptor (TLR), NOD-Like Receptor (NLR) and C-Type Lectin Receptor (CLR) stimulation were tested by assessing NF-κB activation in HEK293 cells expressing a given TLR, NLR or CLR. The activity of the test articles was tested at one concentration and compared to control ligands. These steps were performed in triplicate.
hNOD1: C12-iE-DAP at 1 μg/mL Antagonist: 100 ng/mL.
(§2) In a 96-well plate (200 μL total volume) containing the appropriate cells (50,000-75,000 cells/well), 20 μL of the test article or the positive control ligand was added to the wells. For the antagonist assay, the test article was incubated with the cells, at 37° C. with 5% CO2, for 30 minutes prior to the addition of the positive control ligand to the wells. The media added to the wells was designed for the detection of NF-κB induced SEAP expression. After a 16-24 hr incubation the optical density (OD) was read at 650 nm on a Molecular Devices SpectraMax 340PC absorbance detector.
(§3) The fold induction (ratio of average induced value to average non-induced value) results were as follows: […]

[1] = test system: spinal microglia (Iba1) in the dorsal horn of the spinal cord; experiment: Spinal microglial activation (Iba1 immunofluorescence) after intrauterine LPS; format: in vivo, mouse (Balb/C); conditions: 3 estrous cycles
Procedure: (§4) Group 1 included twelve mice with 20 μl endotoxin-free saline introduced to the uterus on the first day of estrus and the subsequent day over 3 consecutive estrous cycles. Group 2 included twelve mice with LPS (100 μg/kg) instilled in the uterus on the first day of estrus and saline injected on the subsequent day over 3 consecutive estrous cycles. Group 3 included twelve mice with LPS (100 μg/kg) mixed with amitriptyline (20 μl of a 100 μM solution, equivalent to 28 μg/kg) instilled in the uterus on the first day of estrus, and amitriptyline alone instilled on the subsequent day over 3 consecutive estrous cycles. Group 4 included 14 mice with LPS (100 μg/kg) mixed with TAK-242 (20 μl of a 100 μM solution, equivalent to 36 μg/kg) instilled on the first day of estrus and TAK-242 alone instilled on the subsequent day over 3 consecutive estrous cycles.
(§5) The investigation involved the instillation of 20 ul of an endotoxin-free 0.9% saline solution into the uterus of all animals on the first day of estrus and the subsequent day during 3 consecutive estrous cycles. Additional agents added to the saline were included according to the groups outlined below. Where LPS is administered, this was done on only 1 day per estrous cycle.
(§6) Where amitriptyline or TAK-242 was administered, this is on both the first day of estrus and the subsequent day.
(§7) The spinal cord was assessed using immunohistochemistry techniques across levels T10, T11, T12, T13, L1, L2, L3, L4, L5, L6, S1 and S2 for Groups 1 and 2, where T represents the thoracic segment of the spinal cord, L represents the lumbar segment of the spinal cord and S represents the sacral segment of the spinal cord.
as §7, with “levels” for “levels T10, T11,”, “L6, S” for “L6, S1”, “Groups 3” for “Groups 1”, “and 4,” for “and 2,”, “cord. […]” for “cord.”

[2] = test system: spinal glial cells in the dorsal horn of the spinal cord; experiment: Spinal glial activation (astrocytes and microglia) after intrauterine LPS, overall statements; format: in vivo, mouse (Balb/C)
Excerpt: In the model, we investigated whether intrauterine LPS administration would cause an activation of the innate immune system in the uterus, replicating the inflammation often seen in dysmenorrhea, with possible association with pain. As inflammation is intrinsically linked with pain, we investigated whether activation of the innate immune system in the uterus would induce activation of spinal glial cells (central nervous system immune cells) in the dorsal horn of the spinal cord. Spinal glial cells include astrocytes and microglia. Activation of spinal glial cells was assessed using immunoflourescent staining with GFAP (astrocytes) or Iba1 (microglia). We then investigated if spinal glial activation is attenuated by the innate immune system blocking drugs amitriptyline and TAK-242.
as §4
Determination of spinal glial response was then assessed using immunofluorescence to confirm the validity of the experimental model.
Determination of the ability of TLR4 antagonists to block the activation of spinal astrocytes and microglia induced by intra-uterine instillation of LPS was assessed.
An assessment of glial activation was made using immunochemistry techniques including Ionized calcium binding adaptor molecule 1 (Iba1) expression and glial fibrillary-associated protein (GFAP) variability in the dorsal horn. Iba1 expression is a marker for microglial activation, and GFAP is a marker for astrocyte activation. The spinal cord levels chosen are consistent with the level of spinal afferent neurons associated with the pelvis, including the uterus in the mouse.

[3] = test system: spinal astrocytes (GFAP) in the dorsal horn of the spinal cord; experiment: Spinal astrocyte activation (GFAP immunofluorescence) after intrauterine LPS; format: in vivo, mouse (Balb/C); conditions: 3 estrous cycles
Procedure: as §4, §5, §6, §7
as §7, with “levels” for “levels T10, T11,”, “L6, S” for “L6, S1”, “Groups 3” for “Groups 1”, “and 4,” for “and 2,”, “cord. […]” for “cord.”

hTLR9 = target: T2, hTLR9 (Homo sapiens, UniProt Q9NR96); experiment: Human TLR/NLR agonist screening, NF-κB SEAP reporter in HEK293 cells; format: cell-based; conditions: agonist mode, Control+ = CpG ODN 2006 1 μg/mL
T2 construct: expressed in transfected cells; host or cells: HEK293
T2 sequence (Q9NR96 26-1032): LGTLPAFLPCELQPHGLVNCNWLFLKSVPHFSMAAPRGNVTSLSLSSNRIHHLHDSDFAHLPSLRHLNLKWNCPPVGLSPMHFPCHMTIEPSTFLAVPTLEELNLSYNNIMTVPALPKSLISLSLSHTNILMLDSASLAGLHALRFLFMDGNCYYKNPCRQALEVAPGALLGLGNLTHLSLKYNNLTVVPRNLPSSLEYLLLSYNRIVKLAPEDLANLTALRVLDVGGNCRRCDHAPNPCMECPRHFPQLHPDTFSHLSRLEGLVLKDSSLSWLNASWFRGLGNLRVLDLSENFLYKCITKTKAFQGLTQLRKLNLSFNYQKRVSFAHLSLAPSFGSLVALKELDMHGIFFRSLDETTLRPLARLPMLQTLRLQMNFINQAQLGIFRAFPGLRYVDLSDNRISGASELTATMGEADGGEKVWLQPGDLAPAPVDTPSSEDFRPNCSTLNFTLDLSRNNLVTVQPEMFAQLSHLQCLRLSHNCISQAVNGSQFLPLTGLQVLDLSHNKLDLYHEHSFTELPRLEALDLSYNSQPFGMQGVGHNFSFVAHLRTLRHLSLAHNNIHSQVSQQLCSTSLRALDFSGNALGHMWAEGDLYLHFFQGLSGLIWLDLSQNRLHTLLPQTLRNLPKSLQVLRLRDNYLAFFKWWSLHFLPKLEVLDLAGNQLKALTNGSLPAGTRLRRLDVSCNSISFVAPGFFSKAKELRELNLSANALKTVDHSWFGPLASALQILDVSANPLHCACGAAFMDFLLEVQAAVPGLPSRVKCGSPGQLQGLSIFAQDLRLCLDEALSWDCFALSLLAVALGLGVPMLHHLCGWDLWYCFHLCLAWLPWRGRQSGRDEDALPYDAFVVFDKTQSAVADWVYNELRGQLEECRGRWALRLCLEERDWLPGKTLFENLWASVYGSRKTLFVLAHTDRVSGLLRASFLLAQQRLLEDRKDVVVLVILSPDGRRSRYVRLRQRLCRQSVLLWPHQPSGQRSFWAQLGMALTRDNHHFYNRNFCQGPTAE
Procedure: as §1
hTLR9: CpG ODN 2006 at 1 μg/mL Antagonist: 500 ng/mL.
as §2, §3

[4] = test system: mice with intrauterine LPS; experiment: Facial Grimace Scale 24 hours after final LPS stimulation; format: in vivo, mouse (Balb/C); conditions: intrauterine LPS vs saline, 24 hours after final LPS stimulation
Procedure: as §4
24 hours following the final LPS stimulation mice were subjected to assessment for the presence or absence of pain. This was assessed using the following tests:
Facial Grimace Scale: Photos of mice in their home cage will be taken, to score their facial Grimace and this was quantified and compared between groups. For further information see: http://www.nature.com/nmeth/journal/v7/n6/full/nmeth.1455.html.

hTLR5 = target: T3, hTLR5 (Homo sapiens, UniProt O60602); experiment: Human TLR/NLR agonist screening, NF-κB SEAP reporter in HEK293 cells; format: cell-based; conditions: agonist mode, Control+ = S. typhimurium flagellin 100 ng/mL
T3 construct: expressed in transfected cells; host or cells: HEK293
T3 sequence (O60602 21-858): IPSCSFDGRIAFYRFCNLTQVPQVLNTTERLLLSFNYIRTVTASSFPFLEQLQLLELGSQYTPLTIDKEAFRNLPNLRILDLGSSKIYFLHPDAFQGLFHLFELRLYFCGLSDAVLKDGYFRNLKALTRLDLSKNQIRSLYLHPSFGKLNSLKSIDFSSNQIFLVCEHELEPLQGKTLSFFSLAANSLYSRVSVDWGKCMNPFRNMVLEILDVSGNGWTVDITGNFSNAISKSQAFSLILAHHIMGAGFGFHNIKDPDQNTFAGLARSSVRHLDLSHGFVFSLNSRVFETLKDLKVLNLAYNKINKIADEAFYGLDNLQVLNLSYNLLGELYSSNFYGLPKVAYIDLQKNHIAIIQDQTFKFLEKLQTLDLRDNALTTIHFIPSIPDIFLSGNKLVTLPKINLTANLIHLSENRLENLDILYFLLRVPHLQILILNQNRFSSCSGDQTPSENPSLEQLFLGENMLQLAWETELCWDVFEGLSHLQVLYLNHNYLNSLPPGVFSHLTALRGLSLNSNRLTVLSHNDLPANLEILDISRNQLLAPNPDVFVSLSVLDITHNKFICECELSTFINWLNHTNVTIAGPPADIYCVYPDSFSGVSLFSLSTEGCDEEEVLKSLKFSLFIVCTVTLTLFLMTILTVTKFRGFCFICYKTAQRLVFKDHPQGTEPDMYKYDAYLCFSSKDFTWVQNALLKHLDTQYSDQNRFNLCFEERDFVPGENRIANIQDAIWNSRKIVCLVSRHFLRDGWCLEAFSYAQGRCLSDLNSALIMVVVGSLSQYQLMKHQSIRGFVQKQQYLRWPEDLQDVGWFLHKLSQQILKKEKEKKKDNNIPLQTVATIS
Procedure: as §1
hTLR5: S. typhimurium flagellin at 100 ng/mL Antagonist: 50 ng/mL.
as §2, §3

[5] = intrauterine, mixed with LPS 100 μg/kg on first day of estrus and alone the subsequent day, amitriptyline 28 μg/kg, TAK-242 36 μg/kg, vs LPS

## CCCCCCCCCCCC(=O)N[C@H](CCC(=O)NC(CCCC(N)C(=O)O)C(=O)O)C(=O)O (some centres unmarked) [C12-iE-DAP]
hNOD1
  Fold induction (ratio of average induced value to average non-induced value): 20

## CCOC(=O)C1=CCCC[C@H]1S(=O)(=O)Nc1ccc(F)cc1Cl [TAK-242]
[1]; [5]
  microglial reactivity (Iba1 staining), impact of intrauterine LPS at multiple levels of the spinal cord: reduced microglia reactivity to basal levels
[2]; intrauterine co-administration with LPS
  spinal glial activation induced by intrauterine LPS: prevented; also recorded: block spinal glial activation
[2]; mouse model, intrauterine administration
  dose effective at reducing spinal glial activation: 0.036 mg/kg
[3]; [5]
  astrocytic reactivity (GFAP staining), impact of intrauterine LPS at multiple levels of the spinal cord: reduced astrocytic reactivity to below basal levels

## CpG ODN 2006
hTLR9
  Fold induction (ratio of average induced value to average non-induced value): 18

## lipopolysaccharide [LPS]
[1]; intrauterine LPS 100 μg/kg once per cycle, vs saline
  Iba1 microglial staining: localised increase in Iba1 microglial staining
[2]; intra-uterine LPS
  activation of spinal glial cells (astrocytes and microglia): induced activation of spinal astrocytes and microglia; also recorded: activate spinal glial cells
[3]; intrauterine LPS 100 μg/kg once per cycle, vs saline controls
  GFAP astrocyte staining: increase in GFAP astrocyte staining through widespread levels of the spinal cord; also recorded: substantial increase in GFAP astrocyte staining
[4]
  presentation of Grimace behaviours: significant increase in the presentation of Grimace behaviours

B1: S. typhimurium flagellin: hTLR5 control ligand (protein, UniProt P06179 2-495, looked up)
Flagellin: AQVINTNSLSLLTQNNLNKSQSALGTAIERLSSGLRINSAKDDAAGQAIANRFTANIKGLTQASRNANDGISIAQTTEGALNEINNNLQRVRELAVQSANSTNSQSDLDSIQAEITQRLNEIDRVSGQTQFNGVKVLAQDNTLTIQVGANDGETIDIDLKQINSQTLGLDTLNVQQKYKVSDTAATVTGYADTTIALDNSTFKASATGLGGTDQKIDGDLKFDDTTGKYYAKVTVTGGTGKDGYYEVSVDKTNGEVTLAGGATSPLTGGLPATATEDVKNVQVANADLTEAKAALTAAGVTGTASVVKMSYTDNNGKTIDGGLAVKVGDDYYSATQNKDGSISINTTKYTADDGTSKTALNKLGGADGKTEVVSIGGKTYAASKAEGHNFKAQPDLAEAAATTTENPLQKIDAALAQVDTLRSDLGAVQNRFNSAITNLGNTVNNLTSARSRIEDSDYATEVSNMSRAQILQQAGTSVLAQANQVPQNVLSLLR
hTLR5
  Fold induction (ratio of average induced value to average non-induced value): 18
